Read-outs that look alike come from different tables or passages of the source.
Experiments:
[1] = Plasma pharmacokinetics in SD rats after single intragastric administration (Example 7); assay type: in vivo; conditions: intragastric 1 mg/kg; for MRT inf: read-out: MRT0-∞
Protocol: The in vivo absorption process and characteristics of the free base and four salts thereof (sulfate, hydrochloride salt, phosphate, maleate) of compound (I) in rats were studied. The pharmacokinetics of a single intragastric administration of 1 mg/kg of a compound of Formula I and four salts thereof (calculated by free base concentration in salt form) were studied in SD rats.
SD rats were given a single intragastric administration of 1 mg/kg free base of Example 1 and four salts thereof (including hydrochloride salt from Example 2, sulfate from Example 3, phosphate from Example 4 and maleate from Example 5). There were 4 male rats in each group. The concentration of the compound of Formula I in plasma was determined, and the pharmacokinetic parameters were calculated according to the concentration-time curve.

[2] = In vivo individual difference analysis: individual plasma concentration versus time in rats (Example 8); parameters: species or system SD rats; conditions: intragastric 1 mg/kg; for Plasma Concentrations of Compound of Formula I: listed as Hydrochloride Salt of Compound of Formula I
Protocol: Compound of Formula I and salts thereof (sulfate, hydrochloride salt, phosphate, maleate), supplied by Shanghai Jingxin Biopharmaceutical Co., Ltd. • Strain: SD rats; Gender: male; Body weight: about 250 grams; Source: shanghai Jiesijie Experimental Animal Co., Ltd Route: single intragastric administration; Capacity: measured in 10 mL/kg body weight Preparation: weighing appropriate amount of the free base or salt of the compound of Formula I, adding a small amount of 0.5% CMC-Na to grind, adding 0.5% CMC-Na to the volume. The concentration is measured as the base. 20 SD rats were divided into 5 groups with 4 rats in each group, fasted for 12 h and drank freely before administration. […] The blood was anticoagulated with 1% heparin, the plasma was separated by 8000 rpm centrifugation for 4 min and stored at -40° C. for testing. LC-MS/MS Method. Pharmacokinetic parameters after administration in rats were calculated using a non-compartmental model of DAS 2.0 software.

solubility in water = assay type: physicochemical
[3] = Hygroscopicity (DVS) experiment, 25° C./80% relative humidity; assay type: physicochemical; conditions: for Hygroscopicity / Vapor sorption: 25° C./80% relative humidity; for hygroscopicity (summary in words): within one week
Protocol: Dynamic vapor sorption curves were collected on a DVS Intrinsic by SMS (Surface Measurement Systems).
20 mg sample of the crystal forms of the Examples and Comparative Examples are placed in the environment of 25° C./80% relative humidity for a dynamic vapor sorption (DVS) test, and the test results […] are shown in Table 5.

[4] = Crystal form stability on heating (XRPD before and after heating); assay type: physicochemical
[5] = male, SD, rat, plasma, po, 1 mg/kg, Mean ± SD, non-compartmental model
[6] = male, SD, rat, plasma, po, 1 mg/kg, Mean ± SD, non-compartmental model, read-out: Tmax
[7] = DVS, listed as Example 2 hydrochloride salt
[8] = Mean ± SD, non-compartmental model, listed as Phosphate
[9] = DVS, listed as Example 4 phosphate

CN(C)C(=O)N[C@H]1CC[C@H](CCN2CCN(c3cccc4ccsc34)CC2)CC1 [Example 2, N′-[trans-4-[2-[7-(benzo[b]thiophene)-7-piperazinyl]ethyl]cyclohexyl]-N,N-dimethylurea]
AUC [1, 5]: 96.9 ± 29.3 ng·h/mL
AUC(0-inf) [1, 5]: 99.1 ± 28.9 ng·h/mL
Cmax [1, 5]: 36.5 ± 13.1 ng/mL
half-life [1, 5]: 4.72 ± 2.66 h
MRT inf [1, 5]: 4.27 ± 2.2 h
Tmax [1, 6]: 0.625 ± 0.25 h
Plasma Concentrations of Compound of Formula I ([2]; 0.333 h after administration, Mean ± SD): 29.4 ± 16.4 ng/mL
Plasma Concentrations of Compound of Formula I ([2]; 0.333 h after administration, rat 1♂): 37.6 ng/mL
Plasma Concentrations of Compound of Formula I ([2]; 0.333 h after administration, rat 2♂): 25.9 ng/mL
Plasma Concentrations of Compound of Formula I ([2]; 0.333 h after administration, rat 3♂): 8.18 ng/mL
Plasma Concentrations of Compound of Formula I ([2]; 0.333 h after administration, rat 4♂): 45.9 ng/mL
Plasma Concentrations of Compound of Formula I ([2]; 0.5 h after administration, Mean ± SD): 35.1 ± 15.6 ng/mL
Plasma Concentrations of Compound of Formula I ([2]; 0.5 h after administration, rat 1♂): 48.3 ng/mL
Plasma Concentrations of Compound of Formula I ([2]; 0.5 h after administration, rat 2♂): 30.6 ng/mL
Plasma Concentrations of Compound of Formula I ([2]; 0.5 h after administration, rat 3♂): 15.0 ng/mL
Plasma Concentrations of Compound of Formula I ([2]; 0.5 h after administration, rat 4♂): 46.4 ng/mL
Plasma Concentrations of Compound of Formula I ([2]; 1 h after administration, rat 1♂): 32.4 ng/mL
Plasma Concentrations of Compound of Formula I ([2]; 1 h after administration, rat 2♂): 25.3 ng/mL
Plasma Concentrations of Compound of Formula I ([2]; 1 h after administration, rat 3♂): 20.8 ng/mL
Plasma Concentrations of Compound of Formula I ([2]; 1 h after administration, rat 4♂): 42.7 ng/mL
solubility in water (solubility in water; listed as hydrochloride salt Form B): greater than 4.6 mg/ml
Hygroscopicity [3, 7]: Almost no
Vapor sorption [3, 7]: 0.21%
hygroscopicity (summary in words) ([3]; DVS): almost no hygroscopicity or slight hygroscopicity

CN(C)C(=O)N[C@H]1CC[C@H](CCN2CCN(c3cccc4ccsc34)CC2)CC1.O=C(O)/C=C\C(=O)O [Example 5, N′-[trans-4-[2-[7-(benzo[b]thiophene)-7-piperazinyl]ethyl]cyclohexyl]-N,N-dimethylurea]
bioavailability (in words) ([1]; compared with other salts): highly bioavailable
half-life (in words) ([1]; compared with other salts): relatively long half-life
AUC [1, 5]: 124 ± 5.79 ng·h/mL
AUC(0-inf) [1, 5]: 125 ± 7 ng·h/mL
Cmax [1, 5]: 45.4 ± 2.81 ng/mL
half-life [1, 5]: 4.67 ± 2.17 h
MRT inf [1, 5]: 3.07 ± 0.531 h
Tmax [1, 6]: 0.75 ± 0.289 h
individual difference of plasma concentration ([2]; compared with other salts): smallest
solubility (solubility in water): > 2600 µg/mL
hygroscopicity compared with other salts ([3]; DVS): less hygroscopic than other salts
Hygroscopicity ([3]; DVS): Almost no
Vapor sorption ([3]; DVS): 0.12%
hygroscopicity (summary in words) ([3]; DVS): almost no hygroscopicity or slight hygroscopicity
The crystal form changes after DVS testing or not ([3]; after DVS testing): No

CN(C)C(=O)N[C@H]1CC[C@H](CCN2CCN(c3cccc4ccsc34)CC2)CC1 [Comparative Example 12, N′-[trans-4-[2-[7-(benzo[b]thiophene)-7-piperazinyl]ethyl]cyclohexyl]-N,N-dimethylurea]
stability of the crystal form ([4]; compared with maleate Form A, after being heated): lower than that of maleate Form A
crystal form after heating ([4]; heated to 150° C. and cooled to room temperature, XRPD): turned to maleate Form A

CN(C)C(=O)N[C@H]1CC[C@H](CCN2CCN(c3cccc4ccsc34)CC2)CC1 [Example 4, N′-[trans-4-[2-[7-(benzo[b]thiophene)-7-piperazinyl]ethyl]cyclohexyl]-N,N-dimethylurea]
MRT0-∞ [1, 8]: 3.06 ± 0.434 h
Tmax [1, 8]: 0.833 ± 0.333 h
t1/2 [1, 8]: 3.25 ± 1.23 h
solubility in water (solubility in water; listed as phosphate Form A): greater than 7.6 mg/ml
Hygroscopicity [3, 9]: Slight
Vapor sorption [3, 9]: 0.61%
